Measurements taken from patent US20100311736A1, “PYRIDOSULFONAMIDE DERIVATIVES AS P13 KINASE INHIBITORS” (GlaxoSMithKline LLC, priority 2007, published 2010).
Where two headings read alike, the source gives them in different places.

Columns and labels:
[1] = target: T1, PI3Kα (Homo sapiens, UniProt P42336); test: PI3K alpha enzyme inhibition (TR-FRET assay / Leadseeker SPA assay); type: biochemical; details: in at least one experimental run; read-out: IC50 against PI3Kα
T1 construct: His; made in house
Protocol: Compounds of the present invention were tested according to the following assays and found as inhibitors of PI3 kinases, particularly PI3Kα. The exemplified compounds were tested and found active against PI3Kα. The IC50's ranged from about 1 nM to 10 μM.
The PI3-Kinase assay has been developed and optimized from a kit produced by Upstate (Millipore). Briefly, this kit contains a biotinylated PIP3 which forms a HTRF (homogeneous time-resolved fluorescence energy transfer) complex when mixed with a Europium labeled anti-GST monoclonal antibody, a GST tagged pleckstrin homology (PH) domain, and Streptavidin-Allophycocyanin (APC). The unlabeled PIP3 produced by PI 3-Kinase activity displaces biotin-PIP3 from the complex resulting in a loss of energy transfer and thus a decrease in signal. Millipore, PI 3-Kinase (human) HTRF™ Assay, technical document associated with catalog #33-017
Compounds are serially diluted (3-fold in 100% DMSO) across a polypropylene 120 μL mother plate from column 1 to column 12 and column 13 to column 24, leaving columns 6 and 18 containing only DMSO to yield 11 concentrations for each test compound. Once titrations are made, 0.1 μL is transferred to the assay plates (Greiner 784075). This assay plate contains three controls: column 6 with DMSO, and column 18 with alternating 20 μM wortmannin and 40 μM PIP3. […] The PIP3 control is dispensed into the plate manually via a matrix pipettor, 1 μL of 200 μM PIP3 in 1× Reaction buffer to wells 18 B, D, F, H, J, L, N, P.
The PI3-Kinase assay has been developed and optimized from a kit produced by Upstate (Millipore). The assay kit (cat: 33-017) contains seven reagents: 1) 4× Reaction Buffer, 2) PIP2 (1 mM), 3) Stop A, 4) Stop B, 5) Detection Mix A, 6) Detection Mix B, 7) Detection Mix C. In addition the following items were obtained or purchased, PI3Kinase (prepared in-house), 4× PI3K Detection Buffer (Millipore), dithiothreitol (Sigma, D-5545), Adenosine-5′-triphosphate (ATP, Sigma, A-6419), PIP3 (1,2-dioctanoyl-sn-glycero-3-[phosphoinositil-3,4,5-triphosphate]tetraammonium salt (Avanti polar lipids, 850186P), DMSO (Sigma, 472301), Wortmannin (Sigma, W-1628).
Prepare 1× PI3Kinase Reaction Buffer by diluting stock 1:4 with de-ionized water, freshly prepared DTT is added at a final concentration of 5 mM on the day of use. Enzyme addition and compound preincubation is initiated by the addition of 2.5 μL of 2× enzyme solution, PI3K alpha in 1× reaction buffer, to all wells using a Multidrop Combi. Plates are incubated at room temperature for 15 minutes. Substrate addition and reaction initiation is completed by the addition of 2.5 μL of 2× substrate solution, PIP2 and ATP in 1× reaction buffer, to all wells using a Multidrop Combi. […] Incubate one hour, evaluate the HTRF signal on the Envision plate reader. […]

[2] = test system: Class I PI3-kinases; details: cited from earlier work
[3] = target: CK2 protein kinase (Homo sapiens, UniProt P68400); details: background statement; cited from earlier work
CK2 protein kinase, sequence (P68400 whole entry): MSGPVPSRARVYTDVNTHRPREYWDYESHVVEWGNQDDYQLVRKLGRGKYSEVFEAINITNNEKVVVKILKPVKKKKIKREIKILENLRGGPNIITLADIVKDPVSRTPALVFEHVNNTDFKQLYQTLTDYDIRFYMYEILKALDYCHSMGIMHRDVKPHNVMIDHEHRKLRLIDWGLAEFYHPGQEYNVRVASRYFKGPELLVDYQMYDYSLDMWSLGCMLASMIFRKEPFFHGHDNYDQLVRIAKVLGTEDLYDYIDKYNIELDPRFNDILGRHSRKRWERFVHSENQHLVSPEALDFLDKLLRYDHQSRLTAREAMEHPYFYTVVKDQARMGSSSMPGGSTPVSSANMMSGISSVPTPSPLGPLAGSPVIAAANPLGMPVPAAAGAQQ

T1 sequence (P42336 whole entry): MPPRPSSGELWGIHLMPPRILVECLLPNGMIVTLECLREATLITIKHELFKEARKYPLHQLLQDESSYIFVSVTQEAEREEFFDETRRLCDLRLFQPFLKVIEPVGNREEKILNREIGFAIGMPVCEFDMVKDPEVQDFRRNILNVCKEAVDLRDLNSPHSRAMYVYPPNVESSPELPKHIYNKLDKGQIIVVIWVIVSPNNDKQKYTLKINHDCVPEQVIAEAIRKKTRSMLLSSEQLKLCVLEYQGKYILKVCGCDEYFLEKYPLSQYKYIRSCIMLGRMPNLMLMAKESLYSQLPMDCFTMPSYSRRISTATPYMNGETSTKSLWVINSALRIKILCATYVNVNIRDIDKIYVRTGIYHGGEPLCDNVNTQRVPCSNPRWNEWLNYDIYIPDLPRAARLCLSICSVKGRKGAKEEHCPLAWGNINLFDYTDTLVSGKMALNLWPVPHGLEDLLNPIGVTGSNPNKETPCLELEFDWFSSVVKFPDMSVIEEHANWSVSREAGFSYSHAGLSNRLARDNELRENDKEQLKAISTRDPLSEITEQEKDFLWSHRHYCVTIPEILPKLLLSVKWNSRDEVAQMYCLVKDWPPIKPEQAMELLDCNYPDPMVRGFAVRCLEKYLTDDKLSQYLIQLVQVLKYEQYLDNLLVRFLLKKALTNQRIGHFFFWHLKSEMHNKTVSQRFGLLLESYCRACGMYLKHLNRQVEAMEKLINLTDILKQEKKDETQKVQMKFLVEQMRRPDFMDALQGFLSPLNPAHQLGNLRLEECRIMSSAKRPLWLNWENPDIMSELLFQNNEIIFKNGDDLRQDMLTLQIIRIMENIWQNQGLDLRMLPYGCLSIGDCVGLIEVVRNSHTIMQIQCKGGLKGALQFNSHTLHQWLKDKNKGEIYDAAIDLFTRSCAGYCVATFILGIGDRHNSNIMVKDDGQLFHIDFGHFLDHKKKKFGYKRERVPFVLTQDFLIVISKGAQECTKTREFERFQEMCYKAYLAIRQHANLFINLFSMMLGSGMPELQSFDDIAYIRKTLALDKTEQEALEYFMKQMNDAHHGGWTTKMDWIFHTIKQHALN
T1 sequence (P27986 whole entry partner): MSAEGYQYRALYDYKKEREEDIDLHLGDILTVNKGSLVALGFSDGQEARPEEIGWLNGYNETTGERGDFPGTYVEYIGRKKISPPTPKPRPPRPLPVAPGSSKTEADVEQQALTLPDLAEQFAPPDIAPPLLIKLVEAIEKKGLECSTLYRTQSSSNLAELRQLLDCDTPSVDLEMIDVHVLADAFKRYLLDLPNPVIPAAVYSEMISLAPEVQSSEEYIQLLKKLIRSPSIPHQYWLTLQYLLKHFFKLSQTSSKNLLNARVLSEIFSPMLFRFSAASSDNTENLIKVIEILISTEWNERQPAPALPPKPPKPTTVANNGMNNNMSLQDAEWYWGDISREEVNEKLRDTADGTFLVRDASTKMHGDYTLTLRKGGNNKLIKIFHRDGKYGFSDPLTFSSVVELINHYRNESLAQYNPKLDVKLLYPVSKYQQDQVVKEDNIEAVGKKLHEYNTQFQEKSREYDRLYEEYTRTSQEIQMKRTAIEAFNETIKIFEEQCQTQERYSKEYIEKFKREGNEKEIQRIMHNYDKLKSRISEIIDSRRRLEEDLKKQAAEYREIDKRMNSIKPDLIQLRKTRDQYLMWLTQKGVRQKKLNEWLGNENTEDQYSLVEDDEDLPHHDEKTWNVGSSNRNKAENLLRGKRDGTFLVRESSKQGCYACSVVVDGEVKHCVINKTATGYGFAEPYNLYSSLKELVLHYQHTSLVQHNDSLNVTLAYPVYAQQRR

SMILES	IC50 [1] [nM]	also measured
O=S(=O)(Nc1cc(-c2cn[nH]c2)cnc1Cl)c1ccccc1 [Example 22, N-[2-chloro-5-(1H-pyrazol-4-yl)-3-pyridinyl]benzenesulfonamide]	316	–
O=c1cc(N2CCOCC2)oc2c(-c3ccccc3)cccc12 [LY294002]	–	IC50 ([2]; Fruman et al. 1998, read-out: IC50 against each of these PI3-kinases): 15000 to 20000 nM; IC50 [3]: 5000 to 10000 nM
COC[C@H]1OC(=O)c2coc3c2[C@@]1(C)C1=C(C3=O)[C@@H]2CCC(=O)[C@@]2(C)C[C@H]1OC(C)=O [wortmannin]	–	IC50 ([2]; wortmannin, background statement, read-out: IC50 against each of the various Class I PI3-kinases): 1 to 10 nM

More lines, main results first:

IC50 [1] [nM]	SMILES	also measured
631	O=S(=O)(Nc1cc(-c2ccc3ccccc3c2)cnc1Cl)c1ccccc1 [Example 27, N-[2-chloro-5-(2-naphthalenyl)-3-pyridinyl]benzenesulfonamide]	–
100	CNc1ncc(-c2cnc(Cl)c(NS(=O)(=O)c3ccccc3)c2)cn1 [Example 29, N-{2-chloro-5-[2-(methylamino)-5-pyrimidinyl]-3-pyridinyl}benzenesulfonamide]	–
13	O=S(=O)(Nc1cc(-c2ccc3nccn3c2)cnc1Cl)c1ccccc1 [Example 35, N-(2-chloro-5-imidazo[1,2-a]pyridin-6-yl-3-pyridinyl)benzenesulfonamide]	–
